Here are results for 1 substance from patent publication US20230279053A1 (priority 2020, published 2023).

One assay deals with T1, Mouse GLP-1R (Mus musculus, UniProt O35659).
T1 construct: expressed in transfected cells
T1 sequence (O35659 22-463): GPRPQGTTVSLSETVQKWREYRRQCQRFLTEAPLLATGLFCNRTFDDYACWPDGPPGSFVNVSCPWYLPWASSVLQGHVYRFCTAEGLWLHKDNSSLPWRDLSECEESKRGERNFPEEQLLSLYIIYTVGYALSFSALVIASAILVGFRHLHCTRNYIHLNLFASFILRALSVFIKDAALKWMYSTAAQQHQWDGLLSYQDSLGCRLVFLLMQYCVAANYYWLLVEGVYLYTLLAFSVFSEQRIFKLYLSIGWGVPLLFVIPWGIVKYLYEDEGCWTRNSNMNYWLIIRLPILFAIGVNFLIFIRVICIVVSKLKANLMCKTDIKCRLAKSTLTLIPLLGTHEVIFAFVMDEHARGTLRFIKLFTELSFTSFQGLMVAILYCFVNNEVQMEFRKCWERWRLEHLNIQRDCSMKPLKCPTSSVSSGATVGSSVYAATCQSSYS
The assay is described as follows: Functional antagonism of mouse GLP1 receptors, cAMP accumulation assay. Type of assay: cell-based. To be noted: CHO-K1 cells stably expressing mouse GLP-1R; stimulated with EC80 of Exendin-4; HitHunter cAMP assay; IC50 corrected by Cheng-Prusoff adaptation. The method, then:
Antagonist inhibition of cAMP production upon stimulation of GLP-1R with agonist ligand was assessed using HitHunter cAMP assay (DiscoverX). The method followed antagonist procedure steps provided in the kit. In brief, CHO-K1 cells stably expressing mouse GLP-1R were thawed and plated at 10K cells per well in CP05 reagent in the total volume of 20 μl into white walled, 384-well plates and incubated overnight at 37° C. in Cytomat. On the day of the assay, the media was replaced with 15 μl of HBSS/10 mM HEPES. DMSO stock of test compounds were serially diluted in DMSO and then further diluted in the HBSS/10 mM HEPES, 5 μl of each concentration were added to the plate followed by 30 min incubation at 37° C. Final DMSO concentration in the assay was 1%. Cells were stimulated for further 30 min at 37° C. by addition of an equivalent to EC80 concentration of Exendin-4. Intracellular accumulation of cAMP was stopped by addition of the HitHunter detection reagents in lysis buffer, provided in the kit. Following 1-hour incubation at RT in the dark, plates were read on Envision (Perkin Elmer). Dotmatics Studies software was used for fitting data to a four-parameter concentration response curve. Calculated IC50 values were corrected for the agonist concentration using an adaptation of the Cheng-Prusoff equation to generate functional pKb values: […]

The next assay addresses T2, Human GLP-1R (Homo sapiens, UniProt P43220).
T2 construct: expressed in transfected cells; host or cells: HEK cells, BacMam transduction
As to the kind of experiment: Functional antagonism of human GLP1 receptors, cAMP accumulation assay. The settings on record: HEK cells infected with GLP-1R Bacmam; stimulated with EC80 of GLP-1(7-36) amide; HiRange cAMP kit; IC50 corrected by Cheng-Prusoff adaptation. Type of assay: cell-based. The method, then: The method followed a two-step protocol provided in the kit. In brief, HEK cells infected with 1% v/v GLP-1R Bacmam for 24 h were harvested using cell dissociation solution (Gibco), centrifuged and resuspended in the assay buffer (HBSS (Lonza) supplemented with 0.5 mM IBMX (Tocris)). DMSO stock of test compounds were serially diluted in the assay buffer and added to 96-well half area white plates (Costar). Final DMSO concentration in the assay was 0.3%. 20K cells per well were added to plates followed by 30 min incubation (humidified air (5% CO2), 37° C.). […] Intracellular accumulation of cAMP was stopped by addition of the HTRF detection reagents in lysis buffer, provided in the kit. Following 1-hour incubation at RT, plates were read on Pherastar FS (BMG Labtech, Inc.) Dotmatics Studies software was used for fitting data to a four-parameter concentration response curve. Calculated IC50 values were corrected for the agonist concentration using an adaptation of the Cheng-Prusoff equation to generate functional pKb values: […]
(Cyclic AMP is a second messenger, typically raised through Gs and lowered through Gi signalling.)

T2 sequence (P43220 24-463): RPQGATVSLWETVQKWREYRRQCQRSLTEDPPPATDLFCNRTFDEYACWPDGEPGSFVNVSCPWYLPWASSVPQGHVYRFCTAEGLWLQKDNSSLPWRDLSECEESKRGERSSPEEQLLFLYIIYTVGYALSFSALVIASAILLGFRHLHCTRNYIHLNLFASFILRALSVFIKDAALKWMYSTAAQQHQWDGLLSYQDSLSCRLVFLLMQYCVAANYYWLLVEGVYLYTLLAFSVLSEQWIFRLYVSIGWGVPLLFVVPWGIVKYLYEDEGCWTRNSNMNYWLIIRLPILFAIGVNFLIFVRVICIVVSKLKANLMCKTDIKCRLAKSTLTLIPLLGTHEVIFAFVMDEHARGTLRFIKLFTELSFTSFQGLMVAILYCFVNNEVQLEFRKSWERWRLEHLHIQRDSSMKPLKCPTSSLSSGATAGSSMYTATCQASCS

For exendin(9-39)amide [Ex 9-39], the “Mouse GLP-1R antagonist cAMP fpKb” value on Mouse GLP-1R came out at 7.2. The “Human GLP-1R antagonist cAMP fpKb” value on Human GLP-1R came out at 7.8.
